The series is described as follows: solubility of 2-amino-5-methyl-1,3,4-oxadiazole in water and aqueous NaCl solution (salting-out effect). The format is physicochemical.

Turning to `Cc1nnc(N)o1` [2-amino-5-methyl-1,3,4-oxadiazole], the “solubility in a 10 mass % aqueous NaCl solution” value (10 mass % aqueous NaCl solution (30° C. as in the same sentence)) is recorded as 7.9 % by mass. Also, the “solubility in a 26.4 mass % aqueous NaCl solution” value runs as follows: (30° C.) 3.5 % by mass; (−5° C.) 1.1 % by mass. Moreover, the solubility in water (water, 30° C.) came out at 13.9 % by mass.

The values above are taken from patent publication US20260209195A1, “METHOD FOR PRODUCING 2-AMINO-5-SUBSTITUTED-1,3,4-OXADIAZOLE” (MITSUBISHI GAS CHEMICAL NEXT COMPANY, INC., priority 2022, published 2026).
